This is an account of results in patent US20240050428A1 (Cullgen (Shanghai), Inc., priority 2020, published 2024).

Read-outs that look alike come from different tables or passages of the source.

One experiment deals with MV4;11 cells. Nature of the experiment: Cell viability assay (CellTiter-Glo) in MV4;11 cells, alone or with gilteritinib. The class given is cell-based. The settings on record: Homo sapiens, MV4;11 cells, CellTiter-Glo, read-out: MV4. Background: In ATP-based viability assays light output follows the ATP content of the culture.
The test system of a further experiment is MOLM-13 cells. Nature of the experiment: Cell viability assay (CellTiter-Glo) in MOLM-13 cells, alone or with gilteritinib. Type of experiment: cell-based. The settings on record: Homo sapiens, MOLM-13 cells, CellTiter-Glo.
The mark [1] stands for this setting: MV4-11, 72 h, compound alone (without gilteritinib), three days, 11 IC50.
The mark [2] stands for this setting: MV4-11, 72 h, with gilteritinib 10 nM, three days, 11 IC50 gilteritinib.
Setting [3] is: MOLM-13, 72 h, compound alone (without gilteritinib), three days, read-out: MOLM-13 IC50.
Where [4] appears, read: MOLM-13, 72 h, with gilteritinib 20 nM, three days, read-out: MOLM-13 IC50 gilteritinib.
Setting [5] is: MV4-11, 72 h, compound with gilteritinib 10 nM, three days, 11 IC50 gilteritinib.
The mark [6] stands for this setting: MOLM-13, 72 h, compound with gilteritinib 20 nM, three days, read-out: MOLM-13 IC50 gilteritinib.
Where [7] appears, read: 72 h, compound alone (without gilteritinib), three days, 11 IC50.
The mark [8] stands for this setting: 72 h, compound with gilteritinib 10 nM, three days, 11 IC50 gilteritinib.
Setting [9] is: 72 h, compound alone (without gilteritinib), three days, read-out: MOLM-13 IC50.
The mark [10] stands for this setting: 72 h, compound with gilteritinib 20 nM, three days, read-out: MOLM-13 IC50 gilteritinib.

Consider `O=C1CCC(N2Cc3cc(OCCOCCC(=O)N4CCC(n5cc(-c6cnc7cccc(Br)c7n6)cn5)CC4)ccc3C2=O)C(=O)N1` (centres unmarked) [GS-018, 3-(5-(2-(3-(4-(4-(8-Bromoquinoxalin-2-yl)-1H-pyrazol-1-yl)piperidin-1-yl)-3-oxopropoxy)ethoxy)-1-oxoisoindolin-2-yl)piperidine-2,6-dione], for which the IC50 with MV4;11 cells (MV4-11, 72 h, with 10 nM gilteritinib, 3 days, 11 IC50 gilteritinib) came to 0.9 nM; in the experiment on MV4;11 cells (MV4-11, 72 h, without gilteritinib, 3 days, 11 IC50), 8.7 nM; with MOLM-13 cells (MOLM-13, 72 h, with 20 nM gilteritinib, 3 days, read-out: MOLM-13 IC50 gilteritinib) it was 1.6 nM; in the experiment with MOLM-13 cells (MOLM-13, 72 h, without gilteritinib, 3 days, read-out: MOLM-13 IC50), 15.6 nM.

`O=C1CCC(N2Cc3c(NC4CCCC(Nc5cccc(N6CCC(c7cccc(Cl)c7)CC6)c5)C4)cccc3C2=O)C(=O)N1` (centres unmarked) [GS-135, 3-(4-((3-((3-(4-(3-Chlorophenyl)piperidin-1-yl)phenyl)amino)cyclohexyl)amino)-1-oxoisoindolin-2-yl)piperidine-2,6-dione]: the IC50 with MV4;11 cells (setting [1]) was over 1000 nM; in the experiment on MV4;11 cells (setting [2]), 100 to 1000 nM; in the experiment with MOLM-13 cells (setting [3]) it was over 1000 nM; with MOLM-13 cells (setting [4]), over 1000 nM.

For `O=C1CCC(N2C(=O)c3ccc(C#CCCCCn4cc(-c5cnc6ccccc6n5)cn4)cc3C2=O)C(=O)N1` (centres unmarked) [GS-369, 2-(2,6-Dioxopiperidin-3-yl)-5-(6-(4-(quinoxalin-2-yl)-1H-pyrazol-1-yl)hex-1-yn-1-yl)isoindoline-1,3-dione], the IC50 in the experiment with MV4;11 cells (setting [1]), with MV4;11 cells (setting [2]), in the experiment on MOLM-13 cells (setting [3]) and in the experiment on MOLM-13 cells (setting [4]) was over 1000 nM throughout.

On to `Cc1nn(CCCCCCNc2ccc3c(c2)C(=O)N(C2CCC(=O)NC2=O)C3=O)c(C)c1-c1cnc2ccccc2n1` (centres unmarked) [GS-510, 5-((6-(3,5-Dimethyl-4-(quinoxalin-2-yl)-1H-pyrazol-1-yl)hexyl)amino)-2-(2,6-dioxopiperidin-3-yl)isoindoline-1,3-dione], for which the IC50 with MV4;11 cells (setting [1]) is 100 to 1000 nM; in the experiment with MV4;11 cells (setting [5]), under 10 nM; with MOLM-13 cells (setting [3]) it was over 1000 nM; with MOLM-13 cells (setting [6]), under 10 nM.

As to `O=C1CCC(N2C(=O)c3ccc(NC[C@H]4C[C@H](n5cc(-c6ccncn6)c(C6CC6)n5)C4)cc3C2=O)C(=O)N1` (stereo partly drawn) [GS-601, 5-(((trans-3-(3-Cyclopropyl-4-(pyrimidin-4-yl)-1H-pyrazol-1-yl)cyclobutyl)methyl)amino)-2-(2,6-dioxopiperidin-3-yl)isoindoline-1,3-dione], the IC50 in the experiment with MV4;11 cells (setting [7]) is 10 to 100 nM; in the experiment on MV4;11 cells (setting [8]), over 1000 nM; in the experiment with MOLM-13 cells (setting [9]), over 1000 nM; in the experiment with MOLM-13 cells (setting [10]), 10 to 100 nM.

As to `N#Cc1cccc2ncc(-c3cnn([C@H]4C[C@H](CCCNc5ccc6c(c5)C(=O)N(C5CCC(=O)NC5=O)C6=O)C4)c3)nc12` (stereo partly drawn) [GS-197, 3-(1-(trans-3-(3-((2-(2,6-Dioxopiperidin-3-yl)-1,3-dioxoisoindolin-5-yl)amino)propyl)cyclobutyl)-1H-pyrazol-4-yl)quinoxaline-5-carbonitrile], the IC50 lay within 10 to 100 nM in the experiment on MV4;11 cells (setting [1]), 10 to 100 nM in the experiment on MV4;11 cells (setting [2]), 100 to 1000 nM in the experiment with MOLM-13 cells (setting [3]) and 10 to 100 nM in the experiment on MOLM-13 cells (setting [4]).

`O=C1CCC(N2C(=O)c3ccc(NC[C@H]4C[C@H](n5cc(-c6cc7cn[nH]c7cn6)c(C6CC6)n5)C4)cc3C2=O)C(=O)N1` (stereo partly drawn) [GS-293, 5-(((trans-3-(3-Cyclopropyl-4-(1H-pyrazolo[3,4-c]pyridin-5-yl)-1H-pyrazol-1-yl)cyclobutyl)methyl)amino)-2-(2,6-dioxopiperidin-3-yl)isoindoline-1,3-dione]: the IC50 with MV4;11 cells (setting [1]) was 100 to 1000 nM; with MV4;11 cells (setting [2]), 10 to 100 nM; in the experiment on MOLM-13 cells (setting [3]), over 1000 nM; in the experiment on MOLM-13 cells (setting [4]), 100 to 1000 nM.

Take `CN1CCN(c2ccc3ncc(-c4cnn([C@H]5C[C@H](CCCNc6ccc7c(c6)C(=O)N(C6CCC(=O)NC6=O)C7=O)C5)c4)nc3c2)CC12CC2` (stereo partly drawn) [GS-414, 2-(2,6-dioxopiperidin-3-yl)-5-((3-(trans-3-(4-(7-(4-methyl-4,7-diazaspiro[2.5]octan-7-yl)quinoxalin-2-yl)-1H-pyrazol-1-yl)cyclobutyl)propyl)amino)isoindoline-1,3-dione]: the IC50 lay in the range of 100 to 1000 nM with MV4;11 cells (setting [1]), 10 to 100 nM in the experiment on MV4;11 cells (setting [5]), 100 to 1000 nM in the experiment with MOLM-13 cells (setting [3]) and 10 to 100 nM with MOLM-13 cells (setting [6]).

Take `O=C1CCC(N2C(=O)c3ccc(NCC4CC(n5cc(-c6cnc7cccc(N8CCOCC8)c7n6)cn5)C4)cc3C2=O)C(=O)N1` (centres unmarked) [GS-392, 2-(2,6-Dioxopiperidin-3-yl)-5-(((3-(4-(8-morpholinoquinoxalin-2-yl)-1H-pyrazol-1-yl)cyclobutyl)methyl)amino)isoindoline-1,3-dione]: the IC50 is over 1000 nM with MV4;11 cells (setting [1]), 100 to 1000 nM with MV4;11 cells (setting [2]), over 1000 nM in the experiment on MOLM-13 cells (setting [3]) and over 1000 nM in the experiment on MOLM-13 cells (setting [4]).

Turning to `O=C1CCC(N2C(=O)c3ccc(NCCCCC(F)(F)Cn4cc(-c5cnc6ccccc6n5)cn4)cc3C2=O)C(=O)N1` (centres unmarked) [GS-551, 5-((5,5-Difluoro-6-(4-(quinoxalin-2-yl)-1H-pyrazol-1-yl)hexyl)amino)-2-(2,6-dioxopiperidin-3-yl)isoindoline-1,3-dione], the IC50 in the experiment with MV4;11 cells (setting [7]) is over 1000 nM; in the experiment on MV4;11 cells (setting [8]) it was 100 to 1000 nM; in the experiment with MOLM-13 cells (setting [9]), over 1000 nM; with MOLM-13 cells (setting [10]) it was 10 to 100 nM.

`O=C1CCC(N2C(=O)c3ccc(NCCC[C@H]4C[C@H](n5cc(-c6cnc7ccc(OC8CCNCC8)cc7n6)cn5)C4)cc3C2=O)C(=O)N1` (stereo partly drawn) [GS-204, 2-(2,6-Dioxopiperidin-3-yl)-5-((3-(trans-3-(4-(7-(piperidin-4-yloxy)quinoxalin-2-yl)-1H-pyrazol-1-yl)cyclobutyl)propyl)amino)isoindoline-1,3-dione]: the IC50 with MV4;11 cells (setting [1]) is 10 to 100 nM; with MV4;11 cells (setting [2]), 10 to 100 nM; in the experiment on MOLM-13 cells (setting [3]), 100 to 1000 nM; in the experiment on MOLM-13 cells (setting [4]), under 10 nM.

On to `O=C1CCC(N2C(=O)c3ccc(NCCC[C@H]4C[C@H](n5cc(-c6cnc7ccc(N8CCN(CC(F)(F)F)CC8)cc7n6)cn5)C4)cc3C2=O)C(=O)N1` (stereo partly drawn) [GS-587, 2-(2,6-Dioxopiperidin-3-yl)-5-((3-(trans-3-(4-(7-(4-(2,2,2-trifluoroethyl)piperazin-1-yl)quinoxalin-2-yl)-1H-pyrazol-1-yl)cyclobutyl)propyl)amino)isoindoline-1,3-dione], for which the IC50 with MV4;11 cells (setting [1]) is 10 to 100 nM; in the experiment with MV4;11 cells (setting [5]) it was under 10 nM; in the experiment on MOLM-13 cells (setting [3]) it was 100 to 1000 nM; in the experiment with MOLM-13 cells (setting [6]), under 10 nM.

For the molecule `Cc1nn([C@H]2C[C@H](CCCNc3ccc4c(c3)C(=O)N(C3CCC(=O)NC3=O)C4=O)C2)cc1-c1cnc2c(N3CCN(C)CC3)cccc2n1` (stereo partly drawn) [GS-417, 2-(2,6-dioxopiperidin-3-yl)-5-((3-(trans-3-(3-methyl-4-(5-(4-methylpiperazin-1-yl)quinoxalin-2-yl)-1H-pyrazol-1-yl)cyclobutyl)propyl)amino)isoindoline-1,3-dione], the IC50 with MV4;11 cells (setting [1]) is 100 to 1000 nM; in the experiment on MV4;11 cells (setting [5]) it was 10 to 100 nM; in the experiment on MOLM-13 cells (setting [3]), 100 to 1000 nM; in the experiment with MOLM-13 cells (setting [6]), 10 to 100 nM.

On to `O=C1CCC(N2C(=O)c3ccc(NCCCCCC(=O)N4CCC(n5cc(-c6cnc7ccc(C8=CCNCC8)cc7n6)cn5)CC4)cc3C2=O)C(=O)N1` (centres unmarked) [GS-525, 2-(2,6-Dioxopiperidin-3-yl)-5-((6-oxo-6-(4-(4-(7-(1,2,3,6-tetrahydropyridin-4-yl)quinoxalin-2-yl)-1H-pyrazol-1-yl)piperidin-1-yl)hexyl)amino)isoindoline-1,3-dione], for which the IC50 is under 10 nM with MV4;11 cells (setting [1]), under 10 nM in the experiment on MV4;11 cells (setting [5]), 10 to 100 nM with MOLM-13 cells (setting [3]) and under 10 nM in the experiment with MOLM-13 cells (setting [6]).

As for `O=C1CCC(N2C(=O)c3ccc(NCCCCCCn4cc(-c5cnc6ccc(N7CCOCC7)cc6n5)cn4)cc3C2=O)C(=O)N1` (centres unmarked) [GS-530, 2-(2,6-Dioxopiperidin-3-yl)-5-((6-(4-(7-morpholinoquinoxalin-2-yl)-1H-pyrazol-1-yl)hexyl)amino)isoindoline-1,3-dione], the IC50 is 10 to 100 nM in the experiment with MV4;11 cells (setting [1]), under 10 nM in the experiment on MV4;11 cells (setting [5]), 10 to 100 nM in the experiment on MOLM-13 cells (setting [3]) and under 10 nM with MOLM-13 cells (setting [6]).

In the case of `O=C1CCC(N2C(=O)c3ccc(NCCCCCCn4cc(-c5cnc6cccc(C7CC7)c6n5)cn4)cc3C2=O)C(=O)N1` (centres unmarked) [GS-389, 5-((6-(4-(8-Cyclopropylquinoxalin-2-yl)-1H-pyrazol-1-yl)hexyl)amino)-2-(2,6-dioxopiperidin-3-yl)isoindoline-1,3-dione], the IC50 lay within 100 to 1000 nM in the experiment on MV4;11 cells (setting [1]), 10 to 100 nM in the experiment on MV4;11 cells (setting [2]), 100 to 1000 nM in the experiment on MOLM-13 cells (setting [3]) and 10 to 100 nM with MOLM-13 cells (setting [4]).

In the case of `O=C1CCC(N2Cc3ccc(CCCCCC(=O)N4CCN(c5ccccn5)CC4)cc3C2=O)C(=O)N1` (centres unmarked) [GS-103, 3-(1-Oxo-6-(6-oxo-6-(4-(pyridin-2-yl)piperazin-1-yl)hexyl)isoindolin-2-yl)piperidine-2,6-dione], the IC50 in the experiment with MV4;11 cells (setting [7]) was over 1000 nM; in the experiment with MV4;11 cells (72 h, with gilteritinib 10 nM, three days, 11 IC50 gilteritinib) it was 100 to 1000 nM; in the experiment with MOLM-13 cells (setting [9]), over 1000 nM; with MOLM-13 cells (72 h, with gilteritinib 20 nM, three days, read-out: MOLM-13 IC50 gilteritinib), 100 to 1000 nM.
